One assay relates to MDA 231 cells. Put plainly: Cell growth inhibition: MTT assay, MDA 231 (ER- breast carcinoma). As to conditions: Homo sapiens, MDA-MB-231, read-out: % inhibition of cell growth compared to no drug control. Format: cell-based. Here is the method:
ER- breast carcinoma, human (MDA-231) obtained from ATCC (HTB 22), were grown in Eagle's MEM medium supplemented with non-essential amino acids, sodium pyruvate, and Earle's BSS, 10% FBS, and 13 ng/mL gentamicin. Cells were incubated at 37° C., 4.5% CO2 and 95.5% humidified air.
(§1) 1. Cell growth inhibition: MTT Assay
(§2) The compounds of formula 1 were tested for ability to inhibit cell growth using the standard MTT assay, a tetrazolium-based assay which measures the viability of cells in culture. Cells were harvested upon reaching 70-80% confluency and pelleted. The cells were then resuspended in medium in which FBS was replaced with Hyclone's Charcoal/Dextran stripped FBS, and seeded (2 mL/well) into 6-well plates (Corning) at a density allowing for linear growth over a four day assay period. Compounds of formula 1 (10 mM stock in dimethylsulfoxide (DMSO)) were added 18-24 hours post-seeding. Compound dilutions were prepared in the appropriate growth media and added to the cells for final concentrations of 10, 3.3 and 1 μM in 0.1% DMSO. At 24, 48 and 72 hr. time points, MTT (3-[4,5-dimethylthiazol-2-yl-2,5-diphenyltetrazolium bromide) stock solution (5mg/mL in 1 PBS) was added to the cells plates (625 μL/well) which were then incubated for 2.5 hours. Liquid was aspirated from the wells and 1 mL/well of 95% ethanol was added to solubilize the formazan reaction product. The plates were shaken (Bellco Mini-Orbital Shaker) for 15 minutes. The solubilized formazan was then transferred (50 μls) into a 96-well plate and the optical densities (OD) were measured (Bio-Tek Microplate Reader) at 570 nm and reference wavelength of 660 nm. Percentage of inhibition of cell growth was calculated according to the following formula: [formula]
A general note: Formazan colour is commonly taken as a measure of viable cells.

The next assay relates to MDA 435 cells. Put plainly: Cell growth inhibition: MTT assay, MDA 435 (ER- breast carcinoma). Format: cell-based. The following applies: Homo sapiens, MDA435, read-out: % inhibition of cell growth compared to no drug control. Here is the method:
ER- breast carcinoma, human (MDA-435) obtained from Dr. Janet Price, MDA Cancer Center, Houston, Tex., were grown in Gibco's RPMI 1640 media supplemented with sodium pyruvate, 10% FBS and 13 ng/mL gentamicin. Cells were incubated at 37° C., 4.5% CO2 and 95.5% humidified air.
as §1, §2

The term inhibition denotes the change of the read-out against control, counted positive when it falls.

The structures appear in SMILES notation. Read-outs that look alike come from different tables or passages of the source.

Regarding `C/C(=C/C=C/C(C)=C/C(=O)Nc1ccc(O)cc1)c1cc(Br)cc(Br)c1` [N-(4-hydroxyphenyl)-(2E,4E,6Z)-7-(3,5-dibromophenyl)-3,7-dimethyl-2,4,6-heptatrienamide], the inhibition at 1 µM with MDA 231 cells (24 hours) came to 6%; with MDA 231 cells (48 hours), 72%; in the assay with MDA 231 cells (72 hours) it was 78%; with MDA 435 cells (24 hours), 27%; with MDA 435 cells (48 hours), 70%; in the assay with MDA 435 cells (72 hours) it was 86%. Further, the inhibition at 3.3 µM turned out to be 65% in the assay on MDA 231 cells (24 hours); 81% in the assay with MDA 231 cells (48 hours); 86% in the assay on MDA 231 cells (72 hours); 28% in the assay on MDA 435 cells (24 hours); 66% in the assay on MDA 435 cells (48 hours); 88% with MDA 435 cells (72 hours). Besides, the inhibition at 10 µM is 65% in the assay with MDA 231 cells (24 hours); 82% in the assay on MDA 231 cells (48 hours); 87% with MDA 231 cells (72 hours); 37% in the assay with MDA 435 cells (24 hours); 70% in the assay with MDA 435 cells (48 hours); 87% in the assay on MDA 435 cells (72 hours).
Turning to `COc1cc(OC)cc(\C(C)=C/C=C/C(C)=C/C(=O)Nc2ccc(O)cc2)c1` [N-(4-hydroxyphenyl)-(2E,4E,6Z)-7-(3,5-dimethoxyphenyl)-3,7-dimethyl-2,4,6-heptatrienamide], the inhibition at 1 µM in the assay with MDA 231 cells (24 hours) turned out to be 18%; in the assay with MDA 231 cells (48 hours) it was 30%; in the assay on MDA 231 cells (72 hours), 25%; with MDA 435 cells (24 hours), 21%; in the assay on MDA 435 cells (48 hours) it was 64%; in the assay on MDA 435 cells (72 hours) it was 86%. Moreover, the inhibition at 3.3 µM was 21% in the assay with MDA 231 cells (24 hours); 52% in the assay on MDA 231 cells (48 hours); 61% with MDA 231 cells (72 hours); 36% in the assay on MDA 435 cells (24 hours); 61% in the assay with MDA 435 cells (48 hours); 87% in the assay on MDA 435 cells (72 hours). Besides, the inhibition at 10 µM with MDA 231 cells (24 hours) was determined as 30%; with MDA 231 cells (48 hours), 65%; with MDA 231 cells (72 hours) it was 64%; with MDA 435 cells (24 hours), 25%; in the assay on MDA 435 cells (48 hours), 61%; in the assay on MDA 435 cells (72 hours) it was 87%.
`C/C(=C/C=C/C(C)=C/C(=O)Nc1ccc(O)cc1)c1ccccc1` [N-(4-hydroxyphenyl)-(2E,4E,6Z)-7-phenyl-3,7-dimethyl-2,4,6-heptatrienamide]: the inhibition at 1 µM was determined as 45% in the assay on MDA 231 cells (24 hours); 67% in the assay with MDA 231 cells (48 hours); 76% in the assay on MDA 231 cells (72 hours); 3% in the assay on MDA 435 cells (24 hours); 39% with MDA 435 cells (48 hours); 41% with MDA 435 cells (72 hours). Also, the inhibition at 3.3 µM with MDA 231 cells (24 hours) was 57%; in the assay with MDA 231 cells (48 hours) it was 80%; with MDA 231 cells (72 hours) it was 87%; with MDA 435 cells (24 hours) it was 3%; with MDA 435 cells (48 hours), 40%; with MDA 435 cells (72 hours), 51%. The inhibition at 10 µM in the assay with MDA 231 cells (24 hours) came to 58%; with MDA 231 cells (48 hours) it was 81%; with MDA 231 cells (72 hours) it was 88%; in the assay on MDA 435 cells (24 hours), 2%; in the assay on MDA 435 cells (48 hours), 42%; in the assay on MDA 435 cells (72 hours), 68%.
On to `C/C(=C/C=C/C(C)=C/C(=O)Nc1ccc(O)cc1)c1cc(C)cc(C)c1` [N-(4-hydroxyphenyl)-(2E,4E,6Z)-7-(3,5-dimethylphenyl)-3,7-dimethyl-2,4,6-heptatrienamide], for which the inhibition at 1 µM in the assay on MDA 231 cells (24 hours) was 50%; with MDA 231 cells (48 hours), 60%; with MDA 231 cells (72 hours) it was 81%; in the assay with MDA 435 cells (24 hours), 56%; with MDA 435 cells (48 hours), 95%; in the assay on MDA 435 cells (72 hours), 95%. Also, the inhibition at 3.3 µM in the assay on MDA 231 cells (24 hours) turned out to be 51%; in the assay with MDA 231 cells (48 hours), 70%; in the assay with MDA 231 cells (72 hours), 82%; in the assay on MDA 435 cells (24 hours), 53%; in the assay with MDA 435 cells (48 hours), 92%; in the assay on MDA 435 cells (72 hours) it was 94%. Moreover, the inhibition at 10 µM stood at 58% with MDA 231 cells (24 hours); 72% in the assay on MDA 231 cells (48 hours); 85% in the assay with MDA 231 cells (72 hours); 53% in the assay on MDA 435 cells (24 hours); 98% in the assay on MDA 435 cells (48 hours); 91% in the assay on MDA 435 cells (72 hours).

Values taken from patent publication US6310247A, “7-aryl-6(Z)-heptatrienoic acid retinamides” (Hoffmann-LA Roche Inc., priority 1999, dated 2001).
